Patent publication US6916802B2, “Amino ceramide-like compounds and therapeutic methods of use” (Genzyme Corporation, priority 2002, dated 2005)

Assays:
[1] = target: T1, GlcCer synthase (Canis lupus familiaris, UniProt A0A8I3MXG6); assay: Glycosylceramide synthase activity, MDCK cell homogenate (Specific Example 2); assay type: biochemical, canine
T1 sequence (A0A8I3MXG6 1-394): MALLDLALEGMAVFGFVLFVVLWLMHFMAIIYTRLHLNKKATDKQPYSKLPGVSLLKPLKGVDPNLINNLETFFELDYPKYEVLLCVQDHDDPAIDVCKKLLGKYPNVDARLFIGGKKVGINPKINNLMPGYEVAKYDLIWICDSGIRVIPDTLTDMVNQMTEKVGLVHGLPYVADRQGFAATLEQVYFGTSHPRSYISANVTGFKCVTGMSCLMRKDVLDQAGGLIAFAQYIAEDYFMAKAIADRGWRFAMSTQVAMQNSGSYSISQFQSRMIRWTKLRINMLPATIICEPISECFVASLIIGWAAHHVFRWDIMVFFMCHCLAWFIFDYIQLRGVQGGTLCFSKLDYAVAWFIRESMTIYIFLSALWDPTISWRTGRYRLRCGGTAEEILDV
Protocol: Glycosylceramide synthase activity. The enzyme activity was measured by the method previously described in Skukla, G. et al., Biochim. Biophys. Acta, 1083:101-108 (1991). MDCK cell homogenate (120 μg of protein) was incubated with uridinediphosphate [^3H]glucose (100,000 cpm) and liposomes consisting of 85 μg octanoylsphingosine, 570 μg dioleoyphosphatidylcholine and 100 μg sodium sulfatide in 200 μl of reaction mixture and kept for 1 h at 37° C. P4 and P4 derivatives dissolved in dimethyl sulfoxide were dispersed into the reaction mixture after adding liposomes. The final concentration of dimethyl sulfoxide was kept 1% under which the enzyme activity was not at all inhibited.

[2] = target: T2, 1-O-acylceramide synthase (Canis lupus familiaris, UniProt Q6XPZ3); assay: 1-O-acylceramide synthase (transacylase) assay; assay type: biochemical; settings: D-threo enantiomers, FIG. 12
T2 construct: the 1-O-acylceramide synthase assayed in the cellular homogenates; endogenous in cells; host or cells: cellular homogenates (MDCK, from context)
T2 sequence (Q6XPZ3 32-408): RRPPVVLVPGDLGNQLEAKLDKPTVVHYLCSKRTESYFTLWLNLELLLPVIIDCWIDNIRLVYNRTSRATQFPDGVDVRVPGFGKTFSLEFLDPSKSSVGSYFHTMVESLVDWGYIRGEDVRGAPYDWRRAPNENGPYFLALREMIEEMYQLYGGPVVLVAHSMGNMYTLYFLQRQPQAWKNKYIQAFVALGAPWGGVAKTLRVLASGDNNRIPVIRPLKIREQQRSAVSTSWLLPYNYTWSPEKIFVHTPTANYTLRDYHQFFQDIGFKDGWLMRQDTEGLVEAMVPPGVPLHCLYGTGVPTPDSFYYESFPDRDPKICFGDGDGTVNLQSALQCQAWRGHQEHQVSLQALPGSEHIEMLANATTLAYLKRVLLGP
Excerpt: Distinguishing Between Inhibition of GlcCer Synthase and 1-O-acylceramide Synthase Inhibition. […] An alternative pathway for ceramide metabolism was subsequently identified, the acylation of ceramide at the 1-hydroxyl position, which was blocked by both threo and erythro diastereomers of PDMP. The specificities of D-threo-P4, D-threo-3′,4′-ethylenedioxy-P4, and D-threo-(4′-hydroxy)-P4 for GlcCer synthase were studied by assaying the transacylase.

[3] = test system: MDCK cells; assay: GlcCer, ceramide and diradylglycerol content of treated MDCK cells (Specific Example 2); assay type: cell-based, canine
Protocol: Cell culture and lipid extraction. One half million of MDCK cells were seeded into 10 cm style dish containing 8 ml serum free DMEM supplemented medium. Shayman, J. A. et al., J. Biol. Chem., 265:12135-12138 (1990). […] The GlcCer synthase inhibitors were added into the medium as a one to one complex with delipidated BSA. Abe, A. et al., J. Lipid. Res., 36:611-621 (1995); Abe, A. et al., Biochim. Biophys. Acta, 1299:331-341 (1996). The cells were incubated for 24 h or 48 h with the inhibitors. After the incubation, the cells were washed twice with 8 ml of cold PBS and fixed with 2 ml of cold methanol. The fixed cells were scraped and transferred to a glass tube. Another one ml of methanol was used to recover the remaining cells in the dish.
Three ml of chloroform was added to the tube and briefly sonicated using a water bath type sonicator. After centrifugation at 800 g for 5 min, the supernatant was transferred into another glass tube. The residues were reextracted with chloroform/methanol (1/1). After the centrifugation, the resultant supernatant was combined with the first one. The residues were air-dried and kept for protein analysis. Adding 0.9% NaCl to the supematant combined, the ratio of chloroform/methanol/aqueous was adjusted to 1/1/1. After centrifugation 800 g for 5 min, the upper layer was discarded. Methanol/water (1/1) with the same amount of volume of the lower layer was used to wash. The resultant lower layer was transferred into a small glass tube and dried down under a stream of nitrogen gas. A part of the lipid was used for lipid phosphate determination. Ames, B. N., Methods Enzymol., 8:115-118 (1966). The remainder was analyzed using HPTLC (Merck).
In order to determine whether inhibition of 1-O-acylceramide synthase was the basis for inhibitor mediated ceramide accumulation, the ceramide and diradylglycerol levels of MDCK cells treated D-threo-P4, D-threo-3′,4′-ethylenedioxy-P4, and D-threo-(4′-hydroxy)-P4 were measured (Table 9). MDCK cells (5×10^5) were seeded into a 10 cm dish and incubated for 24 h. Following the incubation, the cells were treated for 24 or 48 h with or without P4 or the phenyl substitute homologues. Both ceramide and diradylglycerol contents were determined by the method of Preis, J. et al., J. Biol. Chem., 261:8597-8600 (1986). GlcCer content was measured densitometrically by a video camera and use of NIH image 1.49. Significant increases in both ceramide and diradylglycerol occurred only in cells treated with inhibitor concentrations in excess of 1 mM. This was approximately 30-fold lower than the concentration required for inhibition of the 1-O-acylceramide synthase assayed in the cellular homogenates. […] Abe, A. et al., Biochim. Biophys. Acta, 1299:331-341 (1996).
(§1) Effects of D-threo-P4, D-threo4′-hydroxy-P4 and D-threo-3,4′-ethylenedioxy-P4 on GlcCer Synthesis and Cell Growth. To confirm the cellular specificity of D-threo-3′,4′-ethylenedioxy-P4 and D-threo-(4′-hydroxy)-P4 as compared to D-threo-P4, MDCK cells were treated with different concentrations of the inhibitors. The total protein amount in each sample was determined by the BCA method. In GlcCer analysis, lipid samples and standard lipids were applied to the same HPTLC plate pre-treated with borate and developed in a solvent consisting of C/M/W (63/24/4). The level of GlcCer was estimated from a standard curve obtained using a computerized image scanner. The values were normalized on the basis of the phospholipid content. The results are shown in FIG. 7, wherein each bar is the average values from three dishes, with error bars corresponding to one standard deviation. In the control, the total protein and GlcCer were 414±47.4 μg/dish and 24.3±1.97 ng/nmol phosphate, respectively.

[4] = test system: MDCK cells; assay: Cell growth of treated MDCK cells, total protein (Specific Example 2); assay type: cell-based, canine
Protocol: Cell culture and lipid extraction. One half million of MDCK cells were seeded into 10 cm style dish containing 8 ml serum free DMEM supplemented medium. Shayman, J. A. et al., J. Biol. Chem., 265:12135-12138 (1990). After 24 h the medium was replaced with 8 ml of the medium containing 0, 11.8, 118 or 1180 nM D-t-P4, D-t-3′,4′-ethylenedioxy-P4 or D-4′-hydroxy)-P4. The GlcCer synthase inhibitors were added into the medium as a one to one complex with delipidated BSA. Abe, A. et al., J. Lipid. Res., 36:611-621 (1995); Abe, A. et al., Biochim. Biophys. Acta, 1299:331-341 (1996). The cells were incubated for 24 h or 48 h with the inhibitors. After the incubation, the cells were washed twice with 8 ml of cold PBS and fixed with 2 ml of cold methanol. The fixed cells were scraped and transferred to a glass tube. Another one ml of methanol was used to recover the remaining cells in the dish.
as §1

Structure (SMILES) | potency as GlcCer synthase inhibitor, in words [1] | activity in blocking 1-O-acylceramide synthase [2] | GlcCer lost from the cells (depletion) ([3]; 11.3 nM inhibitor) | Ceramide (pmol/nmol phospholipids) ([3]; 11.3 nM, 24 h) | Diradylglycerol (pmol/nmol phospholipids) ([3]; 11.3 nM, 24 h) | Ceramide (pmol/nmol phospholipids) ([3]; 11.3 nM, 48 h) | Diradylglycerol (pmol/nmol phospholipids) ([3]; 11.3 nM, 48 h) | Ceramide (pmol/nmol phospholipids) ([3]; 113 nM, 24 h) | Diradylglycerol (pmol/nmol phospholipids) ([3]; 113 nM, 24 h) | Ceramide (pmol/nmol phospholipids) ([3]; 113 nM, 48 h) | Diradylglycerol (pmol/nmol phospholipids) ([3]; 113 nM, 48 h) | level of ceramide versus untreated cells ([3]; 1130 nM) | Ceramide (pmol/nmol phospholipids) ([3]; 1130 nM, 24 h) | Diradylglycerol (pmol/nmol phospholipids) ([3]; 1130 nM, 24 h) | Ceramide (pmol/nmol phospholipids) ([3]; 1130 nM, 48 h) | Diradylglycerol (pmol/nmol phospholipids) ([3]; 1130 nM, 48 h) | total protein versus untreated cells ([4]; 1130 nM) | total protein content versus untreated cells ([4]; 11.3 or 113 nM)
CCCCCCCCCCCCCCCC(=O)N[C@H](CN1CCCC1)[C@H](O)c1ccc(OC)c(OC)c1 [D-t-3′,4′-dimethoxy-P4] | inferior to these dioxy derivatives |  |  |  |  |  |  |  |  |  |  |  |  |  |  |  |  | 
CCCCCCCCCCCCCCCC(=O)N[C@H](CN1CCCC1)[C@H](O)c1ccc(O)cc1 [D-threo-4′-hydroxy-P4, D-t-4′-hydroxy-1-phenyl-2-palmitoylamino-3-pyrrolidino-1-propanol] | twice as active as the p-methoxy compound | comparable activity | Approximately 66% | 4.29 ± 0.71 | 30.9 ± 2.01 | 6.70 ± 0.29 | 38.4 ± 1.44 | 5.09 ± 0.95 | 31.5 ± 3.84 | 7.47 ± 0.29 | 41.5 ± 0.66 | two times higher | 7.38 ± 0.13 | 38.5 ± 3.84 | 13.4 ± 1.03 | 47.2 ± 2.51 | significant decrease | little difference
